# ChEMBL document CHEMBL1828570, “Modeling the molecular basis for α4β1 integrin antagonism” (Bioorg Med Chem, 2011)
# Biological target: Integrin alpha-4/beta-1 (Homo sapiens, UniProt P05556+P13612)
# Experiment: Antagonist activity at alpha4beta1 integrin
# Type: functional
# Chain of Integrin alpha-4/beta-1 (P05556 whole entry): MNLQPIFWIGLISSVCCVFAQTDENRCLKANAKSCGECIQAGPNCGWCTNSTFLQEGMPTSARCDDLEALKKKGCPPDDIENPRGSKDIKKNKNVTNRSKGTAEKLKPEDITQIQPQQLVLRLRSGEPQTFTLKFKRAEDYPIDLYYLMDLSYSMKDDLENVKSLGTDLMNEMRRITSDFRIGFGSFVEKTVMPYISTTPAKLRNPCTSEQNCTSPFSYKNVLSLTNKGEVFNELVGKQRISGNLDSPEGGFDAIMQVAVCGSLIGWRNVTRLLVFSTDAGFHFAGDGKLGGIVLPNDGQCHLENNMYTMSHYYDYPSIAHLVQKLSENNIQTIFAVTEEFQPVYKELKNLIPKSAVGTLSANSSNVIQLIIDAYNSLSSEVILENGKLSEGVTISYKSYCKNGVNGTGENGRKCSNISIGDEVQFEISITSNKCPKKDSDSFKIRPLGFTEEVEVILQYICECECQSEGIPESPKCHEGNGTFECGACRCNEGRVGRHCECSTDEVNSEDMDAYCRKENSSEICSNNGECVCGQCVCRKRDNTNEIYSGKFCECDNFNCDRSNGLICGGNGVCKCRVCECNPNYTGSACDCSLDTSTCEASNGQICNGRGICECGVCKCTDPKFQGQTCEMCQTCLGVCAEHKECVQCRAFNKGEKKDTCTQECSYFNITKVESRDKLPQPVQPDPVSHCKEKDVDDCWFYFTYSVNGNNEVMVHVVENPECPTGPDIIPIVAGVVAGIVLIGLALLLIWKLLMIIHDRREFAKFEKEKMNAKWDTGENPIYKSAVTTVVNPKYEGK
# Chain of Integrin alpha-4/beta-1 (P13612 whole entry): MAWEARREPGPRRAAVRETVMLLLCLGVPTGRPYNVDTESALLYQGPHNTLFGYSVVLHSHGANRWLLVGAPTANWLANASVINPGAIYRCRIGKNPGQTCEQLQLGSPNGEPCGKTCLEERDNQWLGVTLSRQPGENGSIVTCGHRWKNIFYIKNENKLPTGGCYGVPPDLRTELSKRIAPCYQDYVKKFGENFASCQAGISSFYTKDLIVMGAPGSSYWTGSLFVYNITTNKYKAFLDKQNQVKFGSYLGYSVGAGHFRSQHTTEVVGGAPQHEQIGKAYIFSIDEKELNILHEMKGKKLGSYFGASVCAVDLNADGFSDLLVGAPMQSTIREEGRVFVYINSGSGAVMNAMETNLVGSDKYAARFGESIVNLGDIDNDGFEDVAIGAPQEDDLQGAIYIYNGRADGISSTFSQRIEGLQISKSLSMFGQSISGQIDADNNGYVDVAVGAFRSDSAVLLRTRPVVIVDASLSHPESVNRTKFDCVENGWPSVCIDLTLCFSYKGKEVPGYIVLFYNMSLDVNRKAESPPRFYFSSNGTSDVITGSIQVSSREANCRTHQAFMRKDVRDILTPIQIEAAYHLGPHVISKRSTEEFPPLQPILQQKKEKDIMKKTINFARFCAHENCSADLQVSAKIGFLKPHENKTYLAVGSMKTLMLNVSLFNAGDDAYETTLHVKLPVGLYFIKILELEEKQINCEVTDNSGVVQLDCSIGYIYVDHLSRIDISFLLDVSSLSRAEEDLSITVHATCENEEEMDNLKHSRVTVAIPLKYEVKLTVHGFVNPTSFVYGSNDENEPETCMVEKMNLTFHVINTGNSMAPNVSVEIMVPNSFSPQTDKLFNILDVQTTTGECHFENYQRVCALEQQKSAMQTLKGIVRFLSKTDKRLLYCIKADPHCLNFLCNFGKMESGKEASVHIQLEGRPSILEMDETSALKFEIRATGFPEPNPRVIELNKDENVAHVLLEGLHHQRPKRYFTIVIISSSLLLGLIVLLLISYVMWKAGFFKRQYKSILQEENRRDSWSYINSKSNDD
row,IC50 [nM],SMILES
1,4.5,CC(C)C(=O)Oc1cccc(OC(=O)C(C)C)c1-c1ccc(C[C@@H](NC(=O)[C@@]2(C)CCCN2S(=O)(=O)c2cc(Cl)cc(Cl)c2)C(=O)O)cc1
2,0.07,COc1cccc(OC)c1-c1ccc(C[C@@H](NC(=O)[C@@]2(C)CCN2S(=O)(=O)c2cc(Cl)cc(Cl)c2)C(=O)O)cc1
3,1.27,COCCCC[C@@]1(C(=O)N[C@H](Cc2ccc(-c3c(OC)cccc3OC)cc2)C(=O)O)CCCO1
4,140,COc1cccc(OC)c1-c1ccc(C[C@H](NC[C@@H]2CCCN2S(=O)(=O)c2cc(Cl)cc(Cl)c2)C(=O)O)cc1

# More lines, now with the values behind:
row,SMILES,IC50 [nM]
1,O=C(O)[C@@H](CSSCCNC(=O)C12CC3CC(CC(C3)C1)C2)NC12CC3CC(CC(C3)C1)C2,4100
2,CS(=O)(=O)CCCCC1(C(=O)N[C@H](Cc2ccc(NC(=O)c3c(Cl)cccc3Cl)cc2)C(=O)O)CCC1,6
3,O=C(O)CC[C@H](NCS(=O)(=O)c1ccccc1)C(=O)N[C@@H](Cc1ccc(OCc2c(Cl)cccc2Cl)cc1)C(=O)O,2
4,O=C(Nc1ccc(C[C@H](NC(=O)[C@@H]2C3CCC(CC3)N2S(=O)(=O)c2ccccc2Cl)C(=O)O)cc1)c1cc(Cl)nc(Cl)c1,105
5,CCCNc1c(N[C@@H](Cc2ccc(OCc3c(Cl)cccc3Cl)cc2)C(=O)O)c(=O)c1=O,67
6,COc1ccccc1-c1ccc(C[C@H](NC(=O)Cc2ccccc2Cl)C(=O)O)cc1,36.8
